Results published in paper PMC4648113 (Acta Pharmacologica Sinica, 2015).
Several values for one entry are separate records, joined by “and”; a condition that tells them apart may be missing. Equal values may be shown once. Entries after “also recorded” stand apart in the source; their conditions may differ.

Legend:
[1] = biological target: native α7 nAChR in hippocampal neurons (Rattus norvegicus, UniProt Q05941); assay type: cell-based
[2] = tested on: ERK1/2 phosphorylation in PC12 cells; assay: Western blot of ERK1/2 phosphorylation in PC12 cells; assay type: cell-based, rat; conditions: pre-incubation 10 min
[3] = tested on: CA1 hippocampal pyramidal neurons; assay: Spontaneous IPSC recordings in hippocampal brain slices; assay type: cell-based, rat
human α7 nAChR [4] = biological target: T1, human α7 nAChR (Homo sapiens, UniProt P36544); assay: Two-electrode voltage clamp; assay type: cell-based; conditions: for Concentration needed to reach 30% of the response of ACh: oocyte assay; for Maximal response vs 3 mmol/L ACh: peak current normalized to 3 mmol/L ACh
human α7 nAChR [5] = biological target: T1, human α7 nAChR; assay: TEVC, inhibition; assay type: cell-based
rat α4β2 nAChR = rat α4β2 nAChR (Rattus norvegicus, UniProt P09483+P12390); assay: TEVC in Xenopus oocytes, selectivity on α4β2; assay type: cell-based
rat α3β4 nAChR = rat α3β4 nAChR (Rattus norvegicus, UniProt P04757+P12392); assay: TEVC in Xenopus oocytes, selectivity on α3β4; assay type: cell-based
human 5-HT3A receptor = biological target: T2, human 5-HT3A receptor (Homo sapiens, UniProt P46098); assay: TEVC in Xenopus oocytes, selectivity on 5-HT3A; assay type: cell-based
T2 sequence (P46098 24-478): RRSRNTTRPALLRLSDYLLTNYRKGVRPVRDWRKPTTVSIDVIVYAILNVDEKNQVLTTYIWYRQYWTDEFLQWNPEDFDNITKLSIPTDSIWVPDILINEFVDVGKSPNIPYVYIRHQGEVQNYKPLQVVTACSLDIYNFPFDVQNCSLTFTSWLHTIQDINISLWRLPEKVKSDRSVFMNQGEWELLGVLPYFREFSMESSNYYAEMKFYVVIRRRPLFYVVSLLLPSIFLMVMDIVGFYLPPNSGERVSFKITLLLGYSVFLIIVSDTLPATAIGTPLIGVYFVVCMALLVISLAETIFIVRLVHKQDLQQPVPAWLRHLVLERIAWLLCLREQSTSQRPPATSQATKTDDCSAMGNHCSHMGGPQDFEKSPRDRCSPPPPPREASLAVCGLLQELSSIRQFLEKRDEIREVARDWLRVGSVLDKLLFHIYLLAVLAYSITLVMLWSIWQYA

[6] = biological target: human α1β3γ2 GABAA receptor (Homo sapiens, UniProt P14867+P18507+P28472); assay: TEVC in Xenopus oocytes, GABAA α1β3γ2; assay type: cell-based
[7] = biological target: human α2β3γ2 GABAA receptor (Homo sapiens, UniProt P18507+P28472+P47869); assay: TEVC in Xenopus oocytes, GABAA α2β3γ2; assay type: cell-based
[8] = biological target: human α3β3γ2 GABAA receptor (Homo sapiens, UniProt P18507+P28472+P34903); assay: TEVC in Xenopus oocytes, GABAA α3β3γ2; assay type: cell-based
[9] = biological target: human α5β3γ2 GABAA receptor (Homo sapiens, UniProt P18507+P28472+P31644); assay: TEVC in Xenopus oocytes, GABAA α5β3γ2; assay type: cell-based
α7 nAChR [10] = biological target: T3, α7 nAChR (Rattus norvegicus, UniProt Q05941); conditions: Ki ratio vs ACh
α7 nAChR [11] = biological target: T3, α7 nAChR; assay: biochemical
[12] = Br-IQ17B alone, up to 100 μmol/L
[13] = 100 μmol/L co-applied with 1 μmol/L GABA
[14] = 100 μmol/L, pre-incubation 1 min

Chain of rat α4β2 nAChR (P09483 31-630): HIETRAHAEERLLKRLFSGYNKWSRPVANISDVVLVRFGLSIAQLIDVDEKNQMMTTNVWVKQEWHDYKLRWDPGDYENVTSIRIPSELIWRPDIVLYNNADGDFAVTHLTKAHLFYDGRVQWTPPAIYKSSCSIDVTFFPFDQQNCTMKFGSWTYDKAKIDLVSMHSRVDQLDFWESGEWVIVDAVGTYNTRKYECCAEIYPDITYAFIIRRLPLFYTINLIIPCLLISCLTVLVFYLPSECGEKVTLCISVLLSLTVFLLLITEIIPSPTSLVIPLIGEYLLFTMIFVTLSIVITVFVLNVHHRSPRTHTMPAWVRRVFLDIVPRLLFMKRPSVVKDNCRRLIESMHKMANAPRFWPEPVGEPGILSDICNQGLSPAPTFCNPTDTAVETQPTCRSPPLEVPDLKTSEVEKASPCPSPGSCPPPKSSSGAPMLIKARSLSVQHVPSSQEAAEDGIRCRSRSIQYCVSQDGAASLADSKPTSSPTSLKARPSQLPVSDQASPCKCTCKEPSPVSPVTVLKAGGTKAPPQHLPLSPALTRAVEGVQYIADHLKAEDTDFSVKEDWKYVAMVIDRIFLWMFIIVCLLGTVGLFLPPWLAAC
Chain of rat α4β2 nAChR (P12390 25-500): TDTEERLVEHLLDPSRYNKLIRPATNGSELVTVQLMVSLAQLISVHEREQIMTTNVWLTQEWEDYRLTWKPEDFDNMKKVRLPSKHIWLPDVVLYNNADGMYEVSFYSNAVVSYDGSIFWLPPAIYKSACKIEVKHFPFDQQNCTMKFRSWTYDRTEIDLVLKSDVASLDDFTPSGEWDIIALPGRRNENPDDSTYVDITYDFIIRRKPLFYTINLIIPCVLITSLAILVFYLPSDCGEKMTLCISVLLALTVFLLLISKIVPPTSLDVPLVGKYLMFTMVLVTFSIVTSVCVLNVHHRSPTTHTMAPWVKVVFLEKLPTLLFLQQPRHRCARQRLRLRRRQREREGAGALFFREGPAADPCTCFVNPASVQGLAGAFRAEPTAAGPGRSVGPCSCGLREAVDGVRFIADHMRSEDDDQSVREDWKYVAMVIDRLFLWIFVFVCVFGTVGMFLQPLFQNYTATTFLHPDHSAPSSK
Chain of native α7 nAChR in hippocampal neurons (Q05941 23-502): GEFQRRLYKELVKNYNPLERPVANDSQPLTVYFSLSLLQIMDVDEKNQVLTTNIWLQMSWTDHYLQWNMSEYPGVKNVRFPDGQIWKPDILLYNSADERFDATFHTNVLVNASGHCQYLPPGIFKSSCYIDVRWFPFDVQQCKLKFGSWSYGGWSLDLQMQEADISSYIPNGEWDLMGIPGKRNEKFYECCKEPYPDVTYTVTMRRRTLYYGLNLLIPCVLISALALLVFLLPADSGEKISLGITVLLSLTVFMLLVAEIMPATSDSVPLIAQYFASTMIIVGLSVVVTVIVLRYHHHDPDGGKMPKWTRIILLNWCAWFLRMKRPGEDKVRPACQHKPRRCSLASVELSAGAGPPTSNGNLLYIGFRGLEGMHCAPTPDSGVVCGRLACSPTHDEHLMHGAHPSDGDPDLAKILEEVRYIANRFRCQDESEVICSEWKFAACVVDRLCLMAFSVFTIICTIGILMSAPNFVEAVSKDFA
T1 sequence (P36544 23-502): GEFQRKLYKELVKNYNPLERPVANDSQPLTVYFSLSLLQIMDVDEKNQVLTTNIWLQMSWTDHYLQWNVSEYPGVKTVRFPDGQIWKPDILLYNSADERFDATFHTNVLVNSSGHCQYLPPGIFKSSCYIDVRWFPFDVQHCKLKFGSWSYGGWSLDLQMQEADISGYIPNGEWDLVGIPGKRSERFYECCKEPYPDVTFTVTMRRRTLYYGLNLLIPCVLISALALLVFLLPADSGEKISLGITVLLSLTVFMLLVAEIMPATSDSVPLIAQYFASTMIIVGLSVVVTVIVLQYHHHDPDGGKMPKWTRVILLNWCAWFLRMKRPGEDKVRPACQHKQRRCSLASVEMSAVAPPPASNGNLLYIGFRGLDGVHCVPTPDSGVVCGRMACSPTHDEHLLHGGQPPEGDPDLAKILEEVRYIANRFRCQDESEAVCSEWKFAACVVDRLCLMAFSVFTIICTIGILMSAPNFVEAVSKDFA
Chain of rat α3β4 nAChR (P04757 26-499): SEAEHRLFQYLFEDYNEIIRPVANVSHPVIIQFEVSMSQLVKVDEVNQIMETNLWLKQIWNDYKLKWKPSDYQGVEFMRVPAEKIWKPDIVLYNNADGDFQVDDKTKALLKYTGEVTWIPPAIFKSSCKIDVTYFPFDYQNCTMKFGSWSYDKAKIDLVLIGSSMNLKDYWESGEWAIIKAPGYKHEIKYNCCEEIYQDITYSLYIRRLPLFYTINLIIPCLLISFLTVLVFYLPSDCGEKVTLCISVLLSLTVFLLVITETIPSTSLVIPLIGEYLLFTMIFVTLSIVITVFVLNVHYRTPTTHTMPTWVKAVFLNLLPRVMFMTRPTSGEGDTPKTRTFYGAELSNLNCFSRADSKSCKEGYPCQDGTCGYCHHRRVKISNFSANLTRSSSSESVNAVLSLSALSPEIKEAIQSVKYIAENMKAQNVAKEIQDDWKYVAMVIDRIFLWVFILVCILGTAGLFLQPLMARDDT
Chain of rat α3β4 nAChR (P12392 21-495): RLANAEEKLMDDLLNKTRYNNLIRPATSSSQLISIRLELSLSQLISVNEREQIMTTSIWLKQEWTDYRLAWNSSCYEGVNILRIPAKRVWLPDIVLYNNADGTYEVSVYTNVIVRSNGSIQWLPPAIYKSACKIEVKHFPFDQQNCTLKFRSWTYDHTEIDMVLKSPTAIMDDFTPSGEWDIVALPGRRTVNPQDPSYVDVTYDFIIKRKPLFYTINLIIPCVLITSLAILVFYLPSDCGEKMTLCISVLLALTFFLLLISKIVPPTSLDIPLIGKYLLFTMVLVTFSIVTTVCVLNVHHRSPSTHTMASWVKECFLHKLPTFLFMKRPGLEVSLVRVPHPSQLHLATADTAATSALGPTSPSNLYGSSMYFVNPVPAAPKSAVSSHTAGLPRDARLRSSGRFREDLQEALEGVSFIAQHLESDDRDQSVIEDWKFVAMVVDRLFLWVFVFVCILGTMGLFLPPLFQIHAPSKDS
T3 sequence (Q05941 23-502): as the sequence (Q05941 23-502) above
Chain of human α2β3γ2 GABAA receptor (P47869 29-451): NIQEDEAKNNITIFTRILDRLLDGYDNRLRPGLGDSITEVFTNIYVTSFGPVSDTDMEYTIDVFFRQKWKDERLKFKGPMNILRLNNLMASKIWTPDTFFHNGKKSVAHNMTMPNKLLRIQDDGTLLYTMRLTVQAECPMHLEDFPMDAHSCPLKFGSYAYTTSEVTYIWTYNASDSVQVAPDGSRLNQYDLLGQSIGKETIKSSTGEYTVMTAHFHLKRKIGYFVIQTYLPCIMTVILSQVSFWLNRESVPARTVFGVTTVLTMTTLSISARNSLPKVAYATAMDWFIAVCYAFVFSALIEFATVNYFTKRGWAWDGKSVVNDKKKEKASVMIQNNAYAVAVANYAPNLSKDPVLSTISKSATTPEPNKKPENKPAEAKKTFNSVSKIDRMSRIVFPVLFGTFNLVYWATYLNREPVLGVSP
Chain of human α2β3γ2 GABAA receptor (P28472 26-473): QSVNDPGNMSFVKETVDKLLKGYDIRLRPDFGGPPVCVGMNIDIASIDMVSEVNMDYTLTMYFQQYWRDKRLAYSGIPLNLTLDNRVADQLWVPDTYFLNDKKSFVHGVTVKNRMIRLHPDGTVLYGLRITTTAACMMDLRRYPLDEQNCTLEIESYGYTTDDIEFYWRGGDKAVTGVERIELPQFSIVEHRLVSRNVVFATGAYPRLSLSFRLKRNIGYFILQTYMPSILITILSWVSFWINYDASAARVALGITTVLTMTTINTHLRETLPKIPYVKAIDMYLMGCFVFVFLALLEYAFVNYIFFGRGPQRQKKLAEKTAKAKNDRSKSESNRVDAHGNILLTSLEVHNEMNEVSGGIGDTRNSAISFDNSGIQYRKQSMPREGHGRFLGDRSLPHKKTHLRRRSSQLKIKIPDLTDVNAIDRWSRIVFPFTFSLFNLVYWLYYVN
Chain of human α2β3γ2 GABAA receptor (P18507 40-475): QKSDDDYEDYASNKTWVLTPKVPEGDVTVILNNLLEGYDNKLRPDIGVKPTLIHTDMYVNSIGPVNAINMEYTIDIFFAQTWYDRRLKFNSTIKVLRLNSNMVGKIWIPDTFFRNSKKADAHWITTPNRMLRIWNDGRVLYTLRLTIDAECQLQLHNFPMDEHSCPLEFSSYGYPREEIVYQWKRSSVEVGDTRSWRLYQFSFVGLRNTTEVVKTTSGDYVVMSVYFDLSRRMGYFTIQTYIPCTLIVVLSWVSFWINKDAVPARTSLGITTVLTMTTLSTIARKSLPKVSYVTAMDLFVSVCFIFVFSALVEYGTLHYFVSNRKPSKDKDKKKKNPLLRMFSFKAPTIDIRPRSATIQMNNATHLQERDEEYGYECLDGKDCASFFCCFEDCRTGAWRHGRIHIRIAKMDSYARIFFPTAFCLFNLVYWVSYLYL
Chain of human α1β3γ2 GABAA receptor (P14867 28-456): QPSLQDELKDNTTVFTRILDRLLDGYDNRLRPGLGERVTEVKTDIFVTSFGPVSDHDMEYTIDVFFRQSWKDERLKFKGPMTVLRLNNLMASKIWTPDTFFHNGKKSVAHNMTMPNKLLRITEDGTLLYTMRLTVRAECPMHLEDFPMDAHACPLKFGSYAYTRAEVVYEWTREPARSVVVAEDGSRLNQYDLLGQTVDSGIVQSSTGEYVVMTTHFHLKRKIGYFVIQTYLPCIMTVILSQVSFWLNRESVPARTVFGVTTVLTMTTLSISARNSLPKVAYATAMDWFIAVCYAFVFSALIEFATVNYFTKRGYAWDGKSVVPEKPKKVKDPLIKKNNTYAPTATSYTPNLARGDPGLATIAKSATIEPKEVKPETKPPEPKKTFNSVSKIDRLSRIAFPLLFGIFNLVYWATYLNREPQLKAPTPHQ
Chain of human α1β3γ2 GABAA receptor (P28472 26-473): as the sequence (P28472 26-473) above
Chain of human α1β3γ2 GABAA receptor (P18507 40-475): as the sequence (P18507 40-475) above

CC(=O)OCC[N+](C)(C)C [ACh, acetylcholine]
Current evoked in hippocampal neurons [1]: evoked α7 currents with fast onset and rapid decay

COc1cc(OC)c(NC(=O)Nc2cc(C)on2)cc1Cl [PNU-120596]
Effect of PNU-120596 on current activated by Br-IQ17B [1]: significantly enhanced
Effect of PNU-120596 on current evoked by low concentration of ACh ([1]; PNU-120596 1 μmol/L, ACh 10 μmol/L): robustly increased
Effect of PNU-120596 alone on basal pERK/tERK ratio [2]: slight increase
sIPSC frequency with PNU-120596 alone ([3]; PNU-120596 1 μmol/L, 10 min, baseline 4.5±0.7 Hz): 4.6±0.7 Hz
sIPSC amplitude with PNU-120596 alone ([3]; PNU-120596 1 μmol/L, 10 min, baseline 30.8±6.8 pA): 30.6±4.7 pA

CCN1C[C@]2(COC(=O)c3ccccc3N3C(=O)C[C@H](C)C3=O)CC[C@H](OC)[C@@]34[C@@H]5C[C@H]6[C@H](OC)[C@@H]5[C@](O)(C[C@@H]6OC)[C@@](O)([C@@H](OC)[C@H]23)[C@@H]14 [MLA, methyllycaconitine]
Effect of MLA on α7 current evoked by Br-IQ17B (human α7 nAChR [4]; 10 nmol/L MLA, 30 μmol/L Br-IQ17B): inhibited; also recorded: completely blocked
Effect of MLA on Br-IQ17B-evoked native α7 current [1]: completely blocked

O=C(N[C@H]1CN2CCC1CC2)c1cc2cccc(Br)n2c1 [Br-IQ17B, N-[(3R)-1-azabicyclo[2,2,2]oct-3-yl]-5-bromoindolizine-2-carboxamide]
Hill coefficient in the presence of PNU-120596 (human α7 nAChR [4]; co-applied with 1 μmol/L PNU-120596): 2.4±0.1
Hill coefficient, activation of α7 current (human α7 nAChR [4]; compound alone): 1.2±0.1
Concentration needed to reach 30% of the response of ACh (human α7 nAChR [4]): 1.5 µmol/L
Maximal response vs 3 mmol/L ACh (human α7 nAChR [4]): 64.3%±3.6%
IC50 (human α7 nAChR [5]): 0.0285 ± 0.0025 µM
Effect of low concentration on ACh-mediated peak current (human α7 nAChR [5]; 3 nmol/L Br-IQ17B, 100 μmol/L ACh): increased the ACh-mediated peak current
Hill coefficient, inhibition of ACh-evoked α7 current (human α7 nAChR [5]; 1-min sustained exposure, then 100 μmol/L ACh): 2.8±0.3
EC50 (rat α4β2 nAChR): > 100 µM
IC50 (rat α4β2 nAChR): > 100 µM
Agonist activity on α4β2 (rat α4β2 nAChR; [12]): did not induce any current; also recorded: no detectable agonist activity
Effect on ACh-evoked α4β2 current (rat α4β2 nAChR; pre-incubation 1 min or co-application with ACh): no enhancement or inhibition
Maximum effect vs 3 mmol/L ACh or 10 μmol/L 5-HT (rat α4β2 nAChR; α4β2, Rat): 0
EC50 (rat α3β4 nAChR): > 100 µM
Agonist activity on α3β4 (rat α3β4 nAChR; [12]): did not induce any current; also recorded: no detectable agonist activity
IC50 (rat α3β4 nAChR; IC50, inhibition of ACh-evoked α3β4 current, co-applied with 300 μmol/L ACh): ~382 µM and 382 µM and ~381 µM
Hill coefficient, inhibition of α3β4 (rat α3β4 nAChR; co-applied with 300 μmol/L ACh): 0.9±0.1
Maximum effect vs 3 mmol/L ACh or 10 μmol/L 5-HT (rat α3β4 nAChR; α3β4, Rat): 0
EC50 (human 5-HT3A receptor): > 100 µM
Maximum effect vs 3 mmol/L ACh or 10 μmol/L 5-HT (human 5-HT3A receptor; 5-HT3A, Human): 0
Agonist activity on 5-HT3A (human 5-HT3A receptor; Br-IQ17B alone, 0.1–100 μmol/L): did not show any agonist activities
Hill coefficient, inhibition of 5-HT3A (human 5-HT3A receptor; co-applied with 10 μmol/L 5-HT): 2.1±0.1
Allosteric modulation of GABAA α1β3γ2 [6, 13]: no allosteric modulation
Effect on GABAA α1β3γ2 [6, 14]: no observable effects
Allosteric modulation of GABAA α2β3γ2 [7, 13]: no allosteric modulation
Effect on GABAA α2β3γ2 [7, 14]: no observable effects
Allosteric modulation of GABAA α3β3γ2 [8, 13]: no allosteric modulation
Effect on GABAA α3β3γ2 [8, 14]: no observable effects
Allosteric modulation of GABAA α5β3γ2 [9, 13]: no allosteric modulation
Effect on GABAA α5β3γ2 [9, 14]: no observable effects
Current evoked in hippocampal neurons [1]: evoked α7 currents with fast onset and rapid decay
sIPSC frequency with co-application of PNU-120596 and Br-IQ17B ([3]; Br-IQ17B 10 μmol/L + PNU-120596 1 μmol/L, 1–5 min, from 4.6±0.7 Hz): 7.8±0.7 Hz
Increase of IPSC peak amplitudes of individual neurons ([3]; Br-IQ17B 10 μmol/L + PNU-120596 1 μmol/L, 5 out of 6 neurons, vs control or PNU120596 alone): 1.3 to 4.9 times
IPSC amplitude in the one neuron out of six without amplitude change ([3]; co-application of Br-IQ17B and PNU-120596, vs 25.3±1.4 pA): 25.9±1.2 pA
Fold more potent than ACh in [3H]-MLA displacement (α7 nAChR [10]): approximately 300 fold
Ki (α7 nAChR [11]): 0.0149 ± 0.0032 µM

O=C(N[C@H]1CN2CCC1CC2)c1cc2cccc(Cl)c2s1 [EVP-6124]
EC50 (human α7 nAChR [4]): 0.45 ± 0.08 µM
Concentration needed to reach 30% of the response of ACh (human α7 nAChR [4]): 3 µmol/L
Maximal response vs 3 mmol/L ACh (human α7 nAChR [4]): 30.6%±1.8%
